Data on seven molecules can be found in patent publication US20240317683A1, “METHODS OF TREATING MOOD DISORDERS” (priority 2020, published 2024).

The target of data set [1] is serotonin transporter (SERT) (Homo sapiens (Human), UniProt P31645). Description: SERT fluorescent substrate uptake inhibition in transfected HEK293 cells. Conditions: HEK293 cells expressing SERT. Type of data set: cell-based. The protocol:
SERT Uptake Inhibition. The ability of test compounds to block monoamine uptake by SERT was determined using the Neurotransmitter Transporter Uptake Assay Kit manufactured by Molecular Devices (Cat #R8173). Briefly, stably transfected HEK293 cells expressing SERT were grown and plated into 384-well plates at a concentration of 20,000 cells per well. Plates were then incubated for 16-20 h at 37° C. and 5% CO2. The medium was then aspirated and replaced with 25 μL of assay buffer (20 mM HEPES in HBSS, containing 0.1% BSA) containing the test compounds at the appropriate concentrations. Plates were then centrifuged at 300 rpm for 15 s and then incubated at 37° C. for 30 minutes. At this time, 25 μL of the proprietary fluorescent dye solution was added, the plates were incubated at 37°° C. for 60 minutes, and then fluorescence was quantified on a plate reader (excitation wavelength =440 nm, emission wavelength=520 nm). The proprietary dye solution contains a mixture of 1) a fluorescent dye (dye 1) that mimics the endogenous substrate of SERT and is thereby actively transported to the intracellular compartment in the absence of an inhibitor and 2) a masking dye that inhibits the fluorescence of dye 1 in the extracellular compartment. Therefore, the overall fluorescence of the system increases as the fluorescent dye is transported into the cells.

Data set [2] is described as follows: Metabolic stability in mouse liver microsomes (MLM). It counts as in vitro ADME, CD-1 mice. The conditions noted are these: CD-1, mouse, pooled mouse liver microsomes, pH 7.4, NADPH. The protocol: MLM Stability. Pooled MLM from CD-1 mice (BIOIVT M00501) were used. Microsomal incubations were carried out in multi-well plates. […] Control incubations were performed by replacing the NADPH-cofactor system with PBS. Test compounds (1 μM, final solvent concentration 1.0%) were incubated with microsomes at 37° C. with constant shaking. Six time points over 60 minutes were analyzed, with 60 μL aliquots of the reaction mixture being drawn at each time point.
In general terms: Microsomes from liver hold many membrane-bound enzymes, among them those of drug oxidation.

Data set [3] can be described thus: Pharmacokinetics in mice, brain. Type of data set: in vivo, C57BL/6 mice. Conditions: for Tmax / half-life / Cmax / AUC0-last: mouse brain; for F: mouse, based on brain AUC0-last. The protocol: Animals. Male C57BL/6 mice, aged 8-12 weeks, were used in these studies. Four mice were housed in each cage. Temperature and humidity were maintained at 22±3° C. and 30-70%, respectively, and illumination was controlled to give a 12 h light and 12 h dark cycle. Temperature and humidity were recorded by an auto-controlled data logger system. All animals were provided laboratory rodent diet. Reverse osmosis water treated with ultraviolet light was provided ad libitum. Animals were randomly assigned to treatment groups.
Drugs. Compounds 4 and 5 were prepared as described above. All other compounds were commercially obtained. Test compounds were used as the hydrogen fumarate (1 and 2) or hydrochloride (3, 4, and 5) salts and were dissolved in a vehicle consisting of normal saline. They were then administered intravenously (IV) via the tail vein, subcutaneously (SC), or orally (PO) via gavage at a dose of 1 or 10 mg/kg (calculated based on the free base) and at a volume of 5 ml/kg body weight.
Sample Collection and Bioanalysis. Blood samples (approximately 60 μL) were collected under light isoflurane anesthesia (Surgivet®) from the retro orbital plexus at 0.08, 0.25, 0.5, 1, 2, 4, 8, and 24 h (4 animals per time point). Immediately after blood collection, plasma was harvested by centrifugation at 4,000 rpm for 10 min at 4° C. and samples were stored at −70±10° C. until bioanalysis. Following blood collection, animals were immediately sacrificed, the abdominal vena-cava was cut open, and the whole body was perfused from the heart using 10 mL of normal saline, and brain samples were collected from all animals. After isolation, brain samples were rinsed three times in ice-cold normal saline (for 5-10 seconds/rinse using ˜5-10 mL normal saline in disposable petri dish for each rinse) and dried on blotting paper. Brain samples were homogenized using ice-cold phosphate-buffered saline (pH 7.4). Total homogenate volume was three times the tissue weight. All homogenates were stored at −70±10° C. until bioanalysis. For bioanalysis, 25 μL aliquots of plasma/brain study samples or spiked plasma/brain calibration standards were added to individual pre-labeled micro-centrifuge tubes followed by 100 μL of an internal standard solution (glipizide, 500 ng/ml in acetonitrile) except for blanks, where 100 μL of acetonitrile was added. Samples were vortexed for 5 minutes and then centrifuged for 10 minutes at 4,000 rpm at 4° C. Following centrifugation, 100 μL of each clear supernatant was transferred to a 96 well plate and analyzed with a fit-for-purpose LC-MS/MS method, with authentic samples of each analyte used for calibration and identification.
Data Analysis. Pharmacokinetic parameters were estimated using the non-compartmental analysis tool of Phoenix® WinNonlin software (Ver 8.0).

A further data set deals with 5-HT2B (Homo sapiens (Human), UniProt P41595). Description: FLIPR Ca2+ flux agonist assay, 5-HT2B. Type of data set: cell-based. The conditions noted are these: for 5-HT2B % Act @ Max Dose: Ca2+ flux, HEK293. The protocol: A solution of 250 mM probenecid in 1 mL FLIPR assay buffer was prepared fresh. This was combined with a fluorescent dye (Fluo-4 Direct™) to make a final assay concentration of 2.5 mM. […] The fluorescent dye was then added to the assay plate along with assay buffer to a final volume of 40 μL. The cell plate was incubated for 50 min at 37° C. and 5% CO2 and placed into the FLIPR Tetra along with the compound plate. 10 μL of references and compounds were then transferred from the compound plate into the cell plate and the fluorescent signal was read.
Background: A change in cytosolic calcium serves as a functional read-out for many receptors and channels.

A short description of data set [4]: Metabolic stability in human liver microsomes (HLM). It counts as in vitro ADME. The conditions noted are these: both sexes, pooled human liver microsomes, pH 7.4, NADPH. The protocol: HLM Stability. Pooled HLM from adult male and female donors (Corning 452117) were used. Microsomal incubations were carried out in multi-well plates. […] Control incubations were performed by replacing the NADPH-cofactor system with PBS. Test compounds (1 μM, final solvent concentration 1.0%) were incubated with microsomes at 37° C. with constant shaking. Six time points over 60 minutes were analyzed, with 60 μL aliquots of the reaction mixture being drawn at each time point.

Where [5] appears, read: male, C57BL/6, SC, 10 mg/kg, read-out: Cmax.
Setting [6] is: male, C57BL/6, IV, 10 mg/kg, read-out: Cmax (C0 back-extrapolated to t = 0).
[7] abbreviates: male, C57BL/6, oral, 10 mg/kg, read-out: Cmax.

What is called IC50 is the concentration at which inhibition is half-maximal. A lower IC50 goes with greater potency. What is called half-life is the time in which the quantity being followed falls by half. A high value points to slow loss. What is called microsomal CLint is the rate of metabolic loss divided by the concentration. Lower therefore signals slow turnover. For orientation: Tmax means the time from dosing to the highest level. The Cmax is the peak of the concentration-time curve. The clearance is the rate of elimination divided by the concentration. Low readings indicate inefficient removal, high ones efficient removal. By EC50 is commonly meant the concentration giving half of the maximal effect. Low readings indicate higher potency in that assay, high ones lower potency in that assay.

Counter-ions that a name gives are not always drawn. Like-named read-outs stand apart in the source and are kept apart here.

5-HT2B, sequence (P41595 whole entry, looked up, species assumed): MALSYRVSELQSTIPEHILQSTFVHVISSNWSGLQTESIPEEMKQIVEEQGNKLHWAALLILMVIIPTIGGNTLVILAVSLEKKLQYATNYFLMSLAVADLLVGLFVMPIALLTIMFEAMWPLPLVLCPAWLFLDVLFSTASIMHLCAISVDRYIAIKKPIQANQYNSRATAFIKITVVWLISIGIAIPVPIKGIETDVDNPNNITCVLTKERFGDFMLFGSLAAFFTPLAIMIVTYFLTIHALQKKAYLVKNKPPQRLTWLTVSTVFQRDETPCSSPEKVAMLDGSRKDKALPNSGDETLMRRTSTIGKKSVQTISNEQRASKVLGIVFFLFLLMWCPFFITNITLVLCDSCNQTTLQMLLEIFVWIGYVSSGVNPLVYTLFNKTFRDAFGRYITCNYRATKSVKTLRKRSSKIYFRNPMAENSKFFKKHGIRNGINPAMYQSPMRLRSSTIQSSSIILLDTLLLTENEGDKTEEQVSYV

Take `CCN(C)CCc1c[nH]c2cccc(O)c12` [Compound 6]: in data set [1], 3270 nM corresponded to half-maximal inhibition (IC50) and the “SERT % Inhibition @ Max Dose” value is on record as 84.02%. Also, in data set [2], the half-life at 1 μM was > 145 min and the microsomal CLint at 1 μM was < 9.6 µL/min/mg. In addition, in data set [3] (male, C57BL/6, SC, 10 mg/kg), the Tmax was found to be 30 min and the half-life was 64.2 min. The Cmax in data set [3] (setting [5]) was found to be 2920 ng/g. For the same molecule, in data set [3] (SC, 10 mg/kg), the AUC0-last was 3,549.18 h*ng/g. The “5-HT2B % Act @ Max Dose” value at 5-HT2B is given as 1.09%. Moreover, in data set [4], the half-life at 1 μM was > 145 min and the intrinsic metabolic clearance (microsomal CLint) at 1 μM was < 9.6 µL/min/mg.
For the molecule `CN(C)CCc1c[nH]c2cccc(O)c12` [Psilocin, psilocin, reference compound], in data set [1], 2040 nM corresponded to half-maximal inhibition (IC50) and the “SERT % Inhibition @ Max Dose” value stood at 88.15%. Further, in data set [2], the half-life at 1 μM was 127 min and the microsomal CLint at 1 μM stood at 10.9 µL/min/mg. This molecule also gave a clearance in data set [3] (male, C57BL/6, mouse brain table, IV, 1 mg/kg) of 24.1 mL/min/kg. The half-life in data set [3] (male, C57BL/6, IV, 1 mg/kg) is 182 min. In addition, the peak concentration (Cmax) in data set [3] (male, C57BL/6, IV, 1 mg/kg, read-out: Cmax (C0 back-extrapolated to t = 0)) is 1200 ng/g. In data set [3] (male, C57BL/6, oral, 1 mg/kg), the Tmax was 10.2 min and the half-life is 175 min. In addition, in data set [3] (male, C57BL/6, oral, 1 mg/kg, read-out: Cmax), the Cmax was 211 ng/g. Moreover, the AUC0-last in data set [3] (IV, 1 mg/kg) stood at 702 ng·h/g. In data set [3] (oral, 1 mg/kg), this molecule gave an AUC0-last of 399 ng·h/g and an F of 57%. The “5-HT2B % Act @ Max Dose” value on 5-HT2B is 1.44%. Moreover, the half-life at 1 μM in data set [4] is 110 min.
As for `CCCN(CC)CCc1c[nH]c2ccccc12` [Compound 1, ethylpropyltryptamine], in data set [1], the IC50 worked out at 750 nM and the “SERT % Inhibition @ Max Dose” value was found to be 75.35%. In data set [2], this molecule came in with a half-life at 1 μM of 6 min and a microsomal CLint at 1 μM of 231 µL/min/mg. This molecule showed a half-life in data set [3] (male, C57BL/6, IV, 10 mg/kg) of 104 min. The maximum concentration (Cmax) in data set [3] (setting [6]) was 15400 ng/g. Also, in data set [3] (male, C57BL/6, oral, 10 mg/kg), the Tmax was determined as 15 min and the half-life was 39.6 min. Moreover, in data set [3] (setting [7]), the Cmax stood at 101 ng/g. In addition, the AUC0-last in data set [3] (IV, 10 mg/kg) is 4,754.52 h*ng/g. In data set [3] (oral, 10 mg/kg), this molecule yielded an AUC0-last of 68.93 ng·h/g and an F of 1.4%. On 5-HT2B, a half-maximal effect (EC50) was put at 40.3 nM and the “5-HT2B % Act @ Max Dose” value is 80.4%. In data set [4], the half-life at 1 μM turned out to be 21.7 min and the microsomal CLint at 1 μM was 64.3 µL/min/mg.
Regarding `CN(C)CCc1c[nH]c2ccc(F)cc12` [Compound 5, 2-(5-fluoro-1H-indol-3-yl)-N,N-dimethylethan-1-amine hydrochloride], the half-life at 1 μM in data set [2] stood at 27.3 min; in data set [4], 4.6 min. Besides, the intrinsic clearance (microsomal CLint) at 1 μM in data set [2] turned out to be 50.8 µL/min/mg; in data set [4] it was 300 µL/min/mg. The Tmax in data set [3] (male, C57BL/6, SC, 1 mg/kg) turned out to be 4.8 min; in data set [3] (male, C57BL/6, SC, 10 mg/kg), 15 min. In addition, the Cmax came to 22 ng/g in data set [3] (male, C57BL/6, SC, 1 mg/kg, read-out: Cmax) and 778 ng/g in data set [3] (setting [5]). For the same molecule, the AUC0-last in data set [3] (SC, 10 mg/kg) was determined as 376.09 ng·h/g.
As to `CCCN(CC)CCc1c[nH]c2ccc(F)cc12` [Compound 3, N-ethyl-N-(2-(5-fluoro-1H-indol-3-yl)ethyl) propan-1-amine hydrochloride], in data set [2], the half-life at 1 μM amounted to 5.5 min and the intrinsic metabolic clearance (microsomal CLint) at 1 μM was found to be 250 µL/min/mg. Besides, on 5-HT2B, the midpoint of the response, the EC50, lay at 15.4 nM and the “5-HT2B % Act @ Max Dose” value was 64.64%. Besides, in data set [4], the half-life at 1 μM was 13 min and the intrinsic metabolic clearance (microsomal CLint) at 1 μM was determined as 106 µL/min/mg.
`CN(C)CCc1c[nH]c2ccccc12` [DMT, N,N-dimethyltryptamine, reference compound]: in data set [1], the IC50 was found to be 2960 nM and the “SERT % Inhibition @ Max Dose” value is listed as 67.92%. In data set [2], this molecule showed a half-life at 1 μM of 69.1 min and a microsomal CLint at 1 μM of 20.1 µL/min/mg. In addition, the “5-HT2B % Act @ Max Dose” value on 5-HT2B is 10.4%. In addition, in data set [4], the half-life at 1 μM came to 7 min.
Turning to `CCN(C)CCc1c[nH]c2ccccc12` [Compound 2, methylethyltryptamine], in data set [1], the IC50 stood at 9130 nM and the “SERT % Inhibition @ Max Dose” value is listed as 62.06%. In data set [2], this molecule had a half-life at 1 μM of 102 min and a microsomal CLint at 1 μM of 13.6 µL/min/mg. In addition, the half-life in data set [3] (male, C57BL/6, IV, 10 mg/kg) was 92.4 min. The Cmax in data set [3] (setting [6]) is 6250 ng/g. In addition, in data set [3] (male, C57BL/6, oral, 10 mg/kg), the Tmax was 30 min and the half-life is 451 min. Moreover, the Cmax in data set [3] (setting [7]) stood at 957 ng/g. For the same molecule, the AUC0-last in data set [3] (IV, 10 mg/kg) is recorded as 3,923.27 h*ng/g. Further, in data set [3] (oral, 10 mg/kg), the AUC0-last is given as 1,988.41 h*ng/g and the F was 51%. The “5-HT2B % Act @ Max Dose” value at 5-HT2B was 22.5%. In data set [4], this molecule displayed a half-life at 1 μM of 126 min and a microsomal CLint at 1 μM of 11.2 µL/min/mg.
